According to publication PMC10881971, “Hepa-ToxMOA: a pathway-screening method for evaluating cellular stress and hepatic metabolic-dependent toxicity of natural products” (Scientific Reports, 2024):
Where two headings read alike, the source gives them in different places.

Assays:
[1] = tested on: AP1, P53, Nrf2, and NF-κB
[2] = under metabolic activation (S9+, 1% rat liver S9), 24 h
[3] = without metabolic activation (S9-), 24 h

Row | SMILES | GFP expression, AP1 cell line (AP1; [2]) | GFP expression, AP1 cell line (AP1; [3]) | Toxic (natural products exceeding Score 3, Venn diagram list Fig. 3c) [1] | sum of activity scores compared between metabolic activation and non-metabolic conditions [1] | GFP intensity, AP1 cell line (AP1) | Toxic (natural products exceeding Score 3, Venn diagram list Fig. 3c) ([1]; human) | GFP intensity, AP1 cell line (AP1; regardless of metabolic activation (S9- and S9+), 24 h)
1 | COc1cc([C@@H]2c3cc4c(cc3[C@H](O)[C@H]3COC(=O)[C@@H]23)OCO4)cc(OC)c1OC [Picropodophyllotoxin] | did not respond | specifically induced GFP expression | – | – | – | – | –
2 | C[C@]12CC[C@H](O)C[C@H]1CC[C@@H]1[C@@H]2[C@H](O)C(=O)[C@]2(C)[C@@H](c3ccc(=O)oc3)CC[C@]12O [Arenobufagin] | did not respond | specifically induced GFP expression | S9- only | more active without metabolic activation | – | – | –
3 | CCc1c2c(nc3ccc(O)cc13)-c1cc3c(c(=O)n1C2)COC(=O)[C@]3(O)CC [7-Ethyl-10-Hydroxycamptothecin] | – | – | – | – | increased | – | –
4 | C[C@]12CC[C@H](O)C[C@H]1CC[C@@H]1[C@@H]2CC[C@]2(C)[C@@H](c3ccc(=O)oc3)CC[C@]12O [Bufalin] | did not respond | specifically induced GFP expression | – | more active under metabolic activation | – | S9+ only | –
5 | CO[C@H]1C[C@H](O[C@H]2CC[C@]3(C)[C@H]4CC[C@]5(C)[C@@H](C6=CC(=O)OC6)CC[C@]5(O)[C@@H]4CC[C@]3(O)C2)O[C@H](C)[C@H]1O[C@@H]1O[C@H](CO)[C@@H](O)[C@H](O)[C@H]1O [Periplocoside] | did not respond | specifically induced GFP expression | – | – | – | – | –
6 | CO[C@]1(CC[C@@H](C)CO[C@@H]2O[C@H](CO)[C@@H](O)[C@H](O)[C@H]2O)O[C@H]2C[C@H]3[C@@H]4CC=C5C[C@@H](O[C@@H]6O[C@H](CO)[C@@H](O[C@@H]7O[C@@H](C)[C@H](O)[C@@H](O)[C@H]7O)[C@H](O)[C@H]6O[C@@H]6O[C@@H](C)[C@H](O)[C@@H](O)[C@H]6O)CC[C@]5(C)[C@H]4CC[C@]3(C)[C@H]2[C@@H]1C [Methyl protodioscin] | – | – | – | – | increased | – | –
7 | CC(C)=CCc1c(O)cc2oc3cc(O)c(O)c(CCC(C)(C)O)c3c(=O)c2c1O [Garcinone C] | – | – | S9+ only | more active under metabolic activation | – | – | –
8 | CC(=O)O[C@H]1[C@H]2O[C@]23[C@@H]2CC[C@]4(O)C[C@@H](O)CC[C@]4(C)[C@H]2CC[C@]3(C)[C@H]1c1ccc(=O)oc1 [Cinobufotalin] | – | – | – | more active without metabolic activation | – | S9- only | –
9 | C[C@]12CC[C@H](O)C[C@@]1(O)CC[C@@H]1[C@@H]2CC[C@]2(C)[C@@H](c3ccc(=O)oc3)CC[C@]12O [Telocinobufagin] | – | – | – | more active without metabolic activation | – | S9- only | –
10 | COc1cc([C@@H]2c3cc4c(cc3[C@H](O)[C@H]3COC(=O)[C@H]23)OCO4)cc(OC)c1OC [Podophyllotoxin, reference compound] | did not respond | specifically induced GFP expression | Common | consistently active regardless of metabolic activation | – | – | –
11 | CC[C@@]1(O)C(=O)OCc2c1cc1n(c2=O)Cc2cc3cc(O)ccc3nc2-1 [10-Hydroxycamptothecin] | – | – | Common | consistently active regardless of metabolic activation | – | – | increased
